Test [1] deals with T1, human alpha1,beta2,gamma2 GABAA receptor (Homo sapiens, UniProt P14867+P47870).
T1 construct: expressed in transfected cells
Nature of the test: Patch-clamp (Dynaflow) on HEK-293 cells expressing GABAA receptor alpha1,beta2,gamma2. Format: cell-based. Particulars: for effect by itself (Baseline shift): absence of GABA. From the text:
(§1) Assay for Testing GABAA Receptor Effects of 3Beta-Hydroxy-5Alpha-Pregnan-20-One on Human Alpha1,Beta,Gamma and Alpha4,Beta,Delta GABAA Receptor Subtype.
(§2) 2) in absence and in presence of the positive GABAA receptor modulating steroids Tetrahydrodeoxycorticosterone (THDOC) and 3alpha-hydroxy-5alpha-androstan-17-ol (3alpha-OH-adiol) by the Dynaflow™ system on HEK-293 cells. In these tests the protocol was optimized to be similar to the physiological conditions in the synaptic cleft.
(§3) HEK-293 cells, permanently transfected with the human alpha1,beta,gamma and alpha4,beta,delta GABAA receptor subtypes, were seeded at a density of 3×10^4/25 cm^2 in cellbind culture flask. The transfected cells were used for patch-clamp experiments 3 days after seeding. When using the cells for patch-clamp experiments the cells were washed twice with oxygen-bubbled extracellular (EC) solution (see below). About 5 mL EC was then added and the cells were kept in the incubator for about 15 minutes. After 15 minutes the cells came loose from the bottom of the flask and were separated by carefully sucking couple of times with a Pasteur pipette.
(§4) Dynaflow™ system with Resolve chip was used for patch-clamp experiments: The electrophysiological recordings from HEK-293 cells were performed under voltage-clamp conditions using patch-clamp technique and the Dynaflow™ system (Dynaflow Pro II Platform Zeiss Axiovert 25; Cellectricon AB, Sweden) with Resolve chips as application system.
(§5) Patch pipettes were pulled from borosilicate glass and polished to a resistance 2-5 MΩ when filled with suitable intracellular solution (IC) (pH was adjusted to 7.2) and immersed in bath solution (extracellular, EC) (pH is adjusted to 7.4). The recordings were made using an Axopatch 200B amplifier, a Digidata 1322A (Axon instruments, Foster city, USA). Data were acquired using the pCLAMP software sampled at 10 kHz, filtered at 2-10 kHz and analyzed with Clampfit (versions 9.0, both from Axon instruments, Foster city, USA). No higher series resistance than 20 MΩ between pipette and cell membrane was accepted. No series resistance compensation was used. The stability of series resistance was monitored repeatedly from the time course of capacitative transients during the experiments. The measured liquid-junction potential between EC and IC was subtracted in all data presented. All experiments were performed at room temperature (21-23° C.).
(§6) All steroids were dissolved to the concentration of 6 mM in DMSO. […] End solutions were the solutions added into the wells of the chip.
(§7) After compensating for the liquid junction potential a steady holding potential of −17 mV was used in all experiments. […] By using the holding potential of −17 mV and the intracellular solution with low chloride ion concentration the chloride ions flux into the cell when the receptors were activated.
(§8) The Dynaflow system allowed application of solutions for as short as 40 ms up to minutes in time.
(§9) In the experiments, THDOC and 3alpha-OH-adiol were used as the positive GABAA receptor modulating steroids.
(§10) Different incubation times were studied to achieve the optimal time for attain stable results and minimize the washout time.
(§11) Cell lines permanently expressing a functional human GABAA receptor was made in following steps. The GABAA receptor subunits alpha1, beta2 and gamma2L or alpha4, beta3 and delta including introduced Kozac sequences just before the start codons, were subcloned into mammalian expression vectors containing Geneticin, Hygromycin B, and Zeocin resistance, respectively.

Test [2] deals with T2, human alpha4,beta3,delta GABAA receptor (Homo sapiens, UniProt P28472+P48169).
T2 construct: expressed in transfected cells
Put plainly: Patch-clamp (Dynaflow) on HEK-293 cells expressing GABAA receptor alpha4,beta3,delta. In kind it is cell-based.
Excerpt: as §1, §2, §3, §4, §5, §6, §7, §8, §9, §10, §11
For orientation: The patch-clamp technique gives a direct electrical read-out from membranes.

The mark [3] stands for this setting: 1 μM 3beta-hydroxy-5alpha-pregnan-20-one.

The structures appear in SMILES notation.

T1 sequence (P14867 28-456): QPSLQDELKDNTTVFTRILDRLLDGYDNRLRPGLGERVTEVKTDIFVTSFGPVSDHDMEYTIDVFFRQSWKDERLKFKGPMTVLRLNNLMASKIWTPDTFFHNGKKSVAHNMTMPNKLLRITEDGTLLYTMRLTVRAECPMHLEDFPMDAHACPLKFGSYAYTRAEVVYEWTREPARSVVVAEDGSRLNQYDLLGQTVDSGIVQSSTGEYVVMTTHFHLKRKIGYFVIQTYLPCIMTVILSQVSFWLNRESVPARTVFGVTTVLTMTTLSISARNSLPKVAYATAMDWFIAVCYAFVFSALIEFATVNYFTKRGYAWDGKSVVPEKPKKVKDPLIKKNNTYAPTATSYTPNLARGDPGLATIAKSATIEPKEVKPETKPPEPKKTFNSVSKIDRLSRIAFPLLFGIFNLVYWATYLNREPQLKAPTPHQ
T1 sequence (P47870 25-512 limits assumed): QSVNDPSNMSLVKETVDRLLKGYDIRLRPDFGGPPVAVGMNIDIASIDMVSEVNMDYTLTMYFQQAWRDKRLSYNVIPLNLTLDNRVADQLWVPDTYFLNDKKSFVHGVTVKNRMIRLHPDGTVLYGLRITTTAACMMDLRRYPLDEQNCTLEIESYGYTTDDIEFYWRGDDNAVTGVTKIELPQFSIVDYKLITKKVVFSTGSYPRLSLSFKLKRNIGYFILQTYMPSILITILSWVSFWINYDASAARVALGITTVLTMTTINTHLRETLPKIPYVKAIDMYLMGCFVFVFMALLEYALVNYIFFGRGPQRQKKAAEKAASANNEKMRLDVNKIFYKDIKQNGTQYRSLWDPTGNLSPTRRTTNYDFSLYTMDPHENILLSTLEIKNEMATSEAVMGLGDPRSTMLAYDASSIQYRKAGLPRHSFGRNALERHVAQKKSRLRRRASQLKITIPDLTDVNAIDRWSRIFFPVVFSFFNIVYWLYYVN
T1 sequence (P18507 40-475 partner): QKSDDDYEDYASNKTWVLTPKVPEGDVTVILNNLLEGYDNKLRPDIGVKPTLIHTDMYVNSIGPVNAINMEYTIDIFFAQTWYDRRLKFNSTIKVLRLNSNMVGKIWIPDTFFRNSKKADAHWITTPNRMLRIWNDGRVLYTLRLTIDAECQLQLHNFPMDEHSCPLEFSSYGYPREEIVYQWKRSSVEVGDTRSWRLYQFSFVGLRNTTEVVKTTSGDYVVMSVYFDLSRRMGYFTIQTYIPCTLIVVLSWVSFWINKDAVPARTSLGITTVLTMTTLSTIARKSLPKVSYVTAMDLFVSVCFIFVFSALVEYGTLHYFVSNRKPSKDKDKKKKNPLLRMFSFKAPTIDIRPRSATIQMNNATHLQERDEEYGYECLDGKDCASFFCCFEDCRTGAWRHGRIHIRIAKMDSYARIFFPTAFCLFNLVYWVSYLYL
T2 sequence (P48169 36-554): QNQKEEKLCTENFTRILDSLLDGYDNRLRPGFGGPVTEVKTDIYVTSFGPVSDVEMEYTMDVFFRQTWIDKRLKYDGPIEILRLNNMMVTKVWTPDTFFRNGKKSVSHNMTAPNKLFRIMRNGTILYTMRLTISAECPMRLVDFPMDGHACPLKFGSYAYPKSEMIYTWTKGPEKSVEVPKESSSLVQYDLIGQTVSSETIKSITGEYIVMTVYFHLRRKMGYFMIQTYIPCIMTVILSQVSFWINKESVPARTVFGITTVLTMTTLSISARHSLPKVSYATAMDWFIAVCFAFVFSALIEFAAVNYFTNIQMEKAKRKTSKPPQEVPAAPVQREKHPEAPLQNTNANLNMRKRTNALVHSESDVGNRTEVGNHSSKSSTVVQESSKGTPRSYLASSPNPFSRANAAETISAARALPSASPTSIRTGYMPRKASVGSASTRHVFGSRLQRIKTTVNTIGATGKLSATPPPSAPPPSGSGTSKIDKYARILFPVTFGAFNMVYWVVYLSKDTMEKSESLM
T2 sequence (P28472 26-473): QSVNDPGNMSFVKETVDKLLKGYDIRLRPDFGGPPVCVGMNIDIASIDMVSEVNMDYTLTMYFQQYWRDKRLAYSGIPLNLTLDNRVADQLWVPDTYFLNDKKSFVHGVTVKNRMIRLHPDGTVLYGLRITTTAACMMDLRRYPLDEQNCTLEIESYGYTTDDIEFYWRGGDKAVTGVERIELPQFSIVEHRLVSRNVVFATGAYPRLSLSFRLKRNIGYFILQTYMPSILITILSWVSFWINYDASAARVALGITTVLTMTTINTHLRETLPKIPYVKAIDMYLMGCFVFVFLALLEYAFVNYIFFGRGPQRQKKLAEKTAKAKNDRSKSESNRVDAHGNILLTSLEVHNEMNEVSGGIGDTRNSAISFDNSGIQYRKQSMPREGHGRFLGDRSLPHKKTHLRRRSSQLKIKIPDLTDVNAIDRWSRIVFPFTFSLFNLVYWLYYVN
T2 sequence (O14764 17-452 partner limits assumed): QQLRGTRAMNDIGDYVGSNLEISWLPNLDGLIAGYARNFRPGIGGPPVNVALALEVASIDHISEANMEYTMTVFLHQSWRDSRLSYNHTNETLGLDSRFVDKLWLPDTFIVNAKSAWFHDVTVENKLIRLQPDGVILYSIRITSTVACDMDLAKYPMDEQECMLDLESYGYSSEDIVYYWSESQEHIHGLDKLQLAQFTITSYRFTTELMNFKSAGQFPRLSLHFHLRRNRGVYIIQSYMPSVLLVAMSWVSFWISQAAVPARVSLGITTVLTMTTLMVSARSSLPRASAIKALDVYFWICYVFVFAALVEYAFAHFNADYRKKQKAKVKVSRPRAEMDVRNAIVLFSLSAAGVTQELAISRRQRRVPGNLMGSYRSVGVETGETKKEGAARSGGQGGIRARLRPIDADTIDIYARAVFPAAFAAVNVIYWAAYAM

For the compound `CC(=O)[C@H]1CC[C@H]2[C@@H]3CC[C@H]4C[C@@H](O)CC[C@]4(C)[C@H]3CC[C@]12C` [3beta-hydroxy-5alpha-pregnan-20-one], the “Antagonism of THDOC enhanced GABA effect (max, concentration-dependent experiment)” value in test [1] (1 μM 3beta-hydroxy-5alpha-pregnan-20-one + 30 μM GABA + 200 nM THDOC, n=10) is recorded as −21±4.6%. Also, the “Effect on 8 μM Androstandiol + 30 μM GABA” value in test [1] (1 μM 3beta-hydroxy-5alpha-pregnan-20-one, phasic effect) is recorded as −30 ± 1.7%. Also, the “Effect on 8 μM Androstandiol, baseline shift” value in test [1] (1 μM 3beta-hydroxy-5alpha-pregnan-20-one, tonic effect, without GABA) is recorded as −33 ± 7.6%. Besides, in test [1] (0.1-1 μM 3beta-hydroxy-5alpha-pregnan-20-one + 30 μM GABA + 200 nM THDOC), the “Imax, antagonism of THDOC effect” value is recorded as −21%. Besides, the “Antagonism of THDOC enhanced GABA effect (single dose)” value in test [1] (single dose 1 μM + 30 μM GABA + 200 nM THDOC, n=6) was −22.3±5.3%. In addition, in test [2] (setting [3]), the “Effect on 0.6 μM Androstandiol + 3 μM GABA” value was −18 ± 2.0% and the “Effect on 0.8 μM Androstandiol + 3 μM GABA” value is recorded as −22 ± 2.6%. Moreover, in test [2] (1 μM 3beta-hydroxy-5alpha-pregnan-20-one alone, N=11, NS vs EC solution), the “Effect by itself (current response)” value is listed as −0.4±0.3 pA. In addition, the “Effect on 3 μM GABA response” value in test [2] (1 μM 3beta-hydroxy-5alpha-pregnan-20-one, N=11, NS) is −6.7 ± 3.3%. The “Effect on GABA alone (in words)” value in test [2] (1 μM 3beta-hydroxy-5alpha-pregnan-20-one, data not shown) is recorded as “without any significant effect”. Moreover, the “Effect on 0.1 μM THDOC + 3 μM GABA” value in test [2] (1 μM 3beta-hydroxy-5alpha-pregnan-20-one, steady state) is −26 ± 2.4%. In test [2] (1 μM 3beta-hydroxy-5alpha-pregnan-20-one, without GABA), the “Effect on 0.1 μM THDOC alone baseline” value is given as −43 ± 3.5%.

With `C[C@]12CC[C@@H](O)C[C@H]1CC[C@@H]1[C@@H]2CC[C@]2(C)[C@@H](C(=O)CO)CC[C@@H]12` [THDOC, Tetrahydrodeoxycorticosterone], the “Emax, enhancement of GABA mediated current” value in test [1] (0.03-1 μM THDOC + 30 μM GABA) is on record as “+115%”. The EC50 (usually the concentration at which the effect is half-maximal) was 70 nM in test [1] (read-out: EC50, enhancement of GABA mediated current, 0.03-1 μM THDOC + 30 μM GABA) and 47 nM in test [2] (read-out: EC50, enhancement of GABA mediated current response, THDOC + 3 μM GABA). In addition, the “Baseline shift (current response in absence of GABA)” value was “+5 ± 3.3 pA” in test [2] (0.03 μM THDOC), “+15 ± 9.5 pA” in test [2] (0.1 μM THDOC), “+12 ± 7.9 pA” in test [2] (0.3 μM THDOC) and “+69 ± 35 pA” in test [2] (1 μM THDOC). For the same compound, in test [2] (THDOC + 3 μM GABA), the “Emax, enhancement of GABA mediated current response” value was determined as 297%.

Consider `C[C@]12CC[C@@H](O)C[C@@H]1CC[C@@H]1[C@@H]2CC[C@]2(C)C(O)CC[C@@H]12` (stereo partly drawn) [Androstandiol, 3alpha-hydroxy-5alpha-androstan-17-ol], for which the “effect by itself (Baseline shift)” value in test [1] (3 μM androstandiol) is on record as “+8 ± 3.6 pA”; in test [1] (8 μM androstandiol), “+13 ± 2.3 pA”; in test [1] (10 μM androstandiol), “+11 ± 1.5 pA”; in test [1] (30 μM androstandiol) it was “+24 ± 6.8 pA”; in test [1] (100 μM androstandiol), “+43 ± 5.7 pA”. Further, the “Potency relative to THDOC (less potent)” value in test [1] (enhancing the effect of GABA, 30 μM GABA) was 48 times. Besides, the “Baseline shift (current response in absence of GABA)” value in test [2] (3 μM androstandiol) is recorded as “+8 ± 3.6 pA”; in test [2] (10 μM androstandiol) it was “+13 ± 4.8 pA”. Besides, the “Potency at alpha4,beta3,delta relative to alpha1,beta2,gamma2 (higher)” value in test [2] (enhancement of GABA-mediated current) is reported as 10 times.
